Experiments:
[1] = molecular target: T1, D-serine uptake in rat cerebellar synaptosomes (Rattus norvegicus, UniProt P63116); assay: [3H]D-serine uptake in rat cerebellar synaptosomes; format: biochemical
T1 construct: from tissue; host or cells: rat cerebellar synaptosomes
T1 sequence (P63116 1-530): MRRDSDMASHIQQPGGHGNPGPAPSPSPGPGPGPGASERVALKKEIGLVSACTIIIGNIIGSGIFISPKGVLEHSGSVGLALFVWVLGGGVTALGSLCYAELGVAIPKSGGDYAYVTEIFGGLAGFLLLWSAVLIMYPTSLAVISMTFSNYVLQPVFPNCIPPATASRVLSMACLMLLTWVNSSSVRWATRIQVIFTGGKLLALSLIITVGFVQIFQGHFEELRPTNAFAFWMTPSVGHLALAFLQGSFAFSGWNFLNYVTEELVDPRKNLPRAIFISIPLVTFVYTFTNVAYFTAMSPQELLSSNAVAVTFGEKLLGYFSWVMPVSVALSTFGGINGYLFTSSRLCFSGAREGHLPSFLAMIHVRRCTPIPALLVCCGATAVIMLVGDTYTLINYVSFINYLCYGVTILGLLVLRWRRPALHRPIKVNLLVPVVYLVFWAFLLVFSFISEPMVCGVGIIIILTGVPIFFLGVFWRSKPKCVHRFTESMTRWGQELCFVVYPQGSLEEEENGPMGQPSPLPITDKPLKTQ
T1 sequence (Q794F9 1-527 partner): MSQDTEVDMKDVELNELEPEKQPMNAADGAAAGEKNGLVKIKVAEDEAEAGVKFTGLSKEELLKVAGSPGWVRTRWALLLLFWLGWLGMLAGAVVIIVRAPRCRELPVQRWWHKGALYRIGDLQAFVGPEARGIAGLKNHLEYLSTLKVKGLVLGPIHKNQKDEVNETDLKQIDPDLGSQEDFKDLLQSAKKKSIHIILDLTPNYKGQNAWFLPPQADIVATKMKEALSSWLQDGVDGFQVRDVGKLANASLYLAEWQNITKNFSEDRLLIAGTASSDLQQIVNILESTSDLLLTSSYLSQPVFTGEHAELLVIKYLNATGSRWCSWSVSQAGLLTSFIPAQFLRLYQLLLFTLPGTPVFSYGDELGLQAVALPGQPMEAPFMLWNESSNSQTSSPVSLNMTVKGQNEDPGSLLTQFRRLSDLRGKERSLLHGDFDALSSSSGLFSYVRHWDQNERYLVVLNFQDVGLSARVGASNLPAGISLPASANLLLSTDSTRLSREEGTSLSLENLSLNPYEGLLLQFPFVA

serotonin (5-HT) uptake = molecular target: T2, serotonin (5-HT) uptake (Rattus norvegicus, UniProt P31652); assay: [3H]serotonin uptake into rat brain synaptosomes; format: biochemical
T2 construct: from tissue; host or cells: synaptosomes from whole rat brain excluding cerebellum
Description: (§1) Inhibition of serotonin (5-HT), dopamine (DA) and noradrenaline (NA) uptake in vitro was measured in rat brain synaptosomes using a modification of a previously described protocol (Bøgesø et al., J Med Chem 1985, 28, 1817-1828). In brief, tritium labelled amines were used to measure uptake into synaptosomes from whole rat brain (excluding cerebellum) ([^3H]serotonin), rat striatal synaptosomes ([^3H]dopamine) or into rat cortical synaptosomes [^3H]noradrenalin. The dissected rat brain regions were homogenized in 0.40 M sucrose supplemented with 1 mM nialamid and centrifuged at 1000×g for 10 min. The supernatants were further centrifuged for 30 min at 20.000×g, 4° C. and resuspended in Krebs-Ringer buffer, pH 7.4 supplemented with 0.2 g/l ascorbic acid. Test compounds and membranes were added in 96 well plates and the incubation was started by adding either 10 nM [^3H]serotonin, 12.5 nM [^3H]dopamine or 10 nM [^3H]noradrenalin for 15 min at 37° C. except for [^3 H]dopamine uptake (5 min at 20° C.). Non-specific uptake was defined as uptake in the presence of 10 μM citalopram, 100 μM benttropin or 20 μM talsupram, respectively and accounted for 5-10% of total uptake. Samples were filtered over Whatman GF/C filters and the IC50's were estimated using non-linear regression analysis from at least 8 points dose-response curves with triplicate determinations.

[2] = molecular target: noradrenaline (NA) uptake (Rattus norvegicus, UniProt Q63380); assay: [3H]noradrenalin uptake into rat cortical synaptosomes; format: biochemical; conditions: read-out: Ki, block of noradrenaline transport
Description: as §1

dopamine (DA) uptake = molecular target: T3, dopamine (DA) uptake (Rattus norvegicus, UniProt P23977); assay: [3H]dopamine uptake into rat striatal synaptosomes; format: biochemical
T3 construct: from tissue; host or cells: rat striatal synaptosomes
Description: as §1

human GlyT-1B = molecular target: T4, human GlyT-1B (Homo sapiens, UniProt P48067); assay: [3H]-glycine uptake into CHO cells expressing human GlyT-1B; format: cell-based
T4 construct: expressed in transfected cells; host or cells: CHO cells
T4 sequence (P48067 1-652 isoform P48067-3): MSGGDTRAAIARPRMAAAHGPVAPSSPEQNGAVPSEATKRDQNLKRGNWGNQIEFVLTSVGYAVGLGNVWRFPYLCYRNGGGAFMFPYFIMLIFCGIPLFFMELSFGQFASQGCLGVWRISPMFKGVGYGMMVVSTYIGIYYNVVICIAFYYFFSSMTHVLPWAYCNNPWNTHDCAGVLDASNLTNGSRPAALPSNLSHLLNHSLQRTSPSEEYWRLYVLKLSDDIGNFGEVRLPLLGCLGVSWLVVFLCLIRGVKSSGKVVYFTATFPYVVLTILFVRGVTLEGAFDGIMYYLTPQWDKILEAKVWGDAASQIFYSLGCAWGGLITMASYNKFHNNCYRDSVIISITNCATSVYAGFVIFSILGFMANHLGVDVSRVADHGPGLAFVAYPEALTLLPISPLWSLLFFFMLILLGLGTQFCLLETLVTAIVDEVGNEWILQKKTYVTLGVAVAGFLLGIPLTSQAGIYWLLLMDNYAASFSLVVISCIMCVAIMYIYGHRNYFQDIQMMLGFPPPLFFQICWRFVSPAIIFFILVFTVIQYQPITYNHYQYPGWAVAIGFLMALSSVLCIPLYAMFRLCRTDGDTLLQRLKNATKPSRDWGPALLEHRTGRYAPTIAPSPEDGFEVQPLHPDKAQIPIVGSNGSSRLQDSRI
Description: Measurements of [^3H]-glycine uptake into CHO cells expressing human GlyT-1B were performed in 96 well plates using 1 μCi [^3H]-glycine/well. Cells were plated 2 days before the experiment and washed twice with assay buffer (composition: 150 mM NaCl, 10 mM glucose, 2.5 mM KCl, 1 mM CaCl2, 2.5 mM MgSO4, 10 mM HEPES, pH 7.4). Test compounds were added 10 min before radioligand and cells were incubated for a further 15 min at 37° C. Cells were washed as described for [3 H]-D-serine uptake into asc-1 cells. Non-specific uptake was defined as uptake in the presence of 100 μM N-methyl-N-(phenyl-trifluoromethylphenoxy)propan-1-yl-glycine.

System A transporters = conditions: at 5 mM; cultured rat hepatocytes; cited from earlier work

T2 sequence (P31652 whole entry): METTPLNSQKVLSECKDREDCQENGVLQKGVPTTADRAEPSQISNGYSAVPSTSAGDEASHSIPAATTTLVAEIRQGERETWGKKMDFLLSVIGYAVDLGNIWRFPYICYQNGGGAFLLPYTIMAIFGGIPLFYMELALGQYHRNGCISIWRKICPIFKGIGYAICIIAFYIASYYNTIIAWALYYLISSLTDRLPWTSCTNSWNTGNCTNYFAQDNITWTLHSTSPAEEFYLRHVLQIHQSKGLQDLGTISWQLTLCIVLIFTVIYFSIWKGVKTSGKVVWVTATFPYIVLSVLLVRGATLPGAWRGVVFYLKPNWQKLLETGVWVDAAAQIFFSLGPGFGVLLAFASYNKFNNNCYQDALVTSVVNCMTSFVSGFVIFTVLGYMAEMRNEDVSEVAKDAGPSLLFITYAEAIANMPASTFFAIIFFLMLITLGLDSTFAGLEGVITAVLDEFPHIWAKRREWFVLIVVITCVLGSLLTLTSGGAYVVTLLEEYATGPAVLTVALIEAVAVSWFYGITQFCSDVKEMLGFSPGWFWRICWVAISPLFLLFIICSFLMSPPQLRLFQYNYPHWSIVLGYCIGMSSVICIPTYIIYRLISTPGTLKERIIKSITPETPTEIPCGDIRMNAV
Chain of noradrenaline (NA) uptake (Q63380 1-617): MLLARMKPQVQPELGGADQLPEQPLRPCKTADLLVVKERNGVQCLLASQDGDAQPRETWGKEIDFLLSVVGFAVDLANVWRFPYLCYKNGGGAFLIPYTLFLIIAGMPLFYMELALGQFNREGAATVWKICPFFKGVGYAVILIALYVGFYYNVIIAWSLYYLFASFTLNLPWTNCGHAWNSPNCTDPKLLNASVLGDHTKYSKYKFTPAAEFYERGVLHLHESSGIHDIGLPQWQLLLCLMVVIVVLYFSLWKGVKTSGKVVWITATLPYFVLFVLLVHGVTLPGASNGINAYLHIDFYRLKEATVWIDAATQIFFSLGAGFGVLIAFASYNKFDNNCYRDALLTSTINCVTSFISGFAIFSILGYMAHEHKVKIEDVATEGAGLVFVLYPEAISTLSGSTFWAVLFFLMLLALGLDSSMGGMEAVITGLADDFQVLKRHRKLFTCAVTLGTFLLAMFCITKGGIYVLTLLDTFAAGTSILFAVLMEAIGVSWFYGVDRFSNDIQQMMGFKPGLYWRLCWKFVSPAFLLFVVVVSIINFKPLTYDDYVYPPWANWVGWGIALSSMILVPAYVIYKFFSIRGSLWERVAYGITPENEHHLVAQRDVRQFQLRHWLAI
T3 sequence (P23977 whole entry): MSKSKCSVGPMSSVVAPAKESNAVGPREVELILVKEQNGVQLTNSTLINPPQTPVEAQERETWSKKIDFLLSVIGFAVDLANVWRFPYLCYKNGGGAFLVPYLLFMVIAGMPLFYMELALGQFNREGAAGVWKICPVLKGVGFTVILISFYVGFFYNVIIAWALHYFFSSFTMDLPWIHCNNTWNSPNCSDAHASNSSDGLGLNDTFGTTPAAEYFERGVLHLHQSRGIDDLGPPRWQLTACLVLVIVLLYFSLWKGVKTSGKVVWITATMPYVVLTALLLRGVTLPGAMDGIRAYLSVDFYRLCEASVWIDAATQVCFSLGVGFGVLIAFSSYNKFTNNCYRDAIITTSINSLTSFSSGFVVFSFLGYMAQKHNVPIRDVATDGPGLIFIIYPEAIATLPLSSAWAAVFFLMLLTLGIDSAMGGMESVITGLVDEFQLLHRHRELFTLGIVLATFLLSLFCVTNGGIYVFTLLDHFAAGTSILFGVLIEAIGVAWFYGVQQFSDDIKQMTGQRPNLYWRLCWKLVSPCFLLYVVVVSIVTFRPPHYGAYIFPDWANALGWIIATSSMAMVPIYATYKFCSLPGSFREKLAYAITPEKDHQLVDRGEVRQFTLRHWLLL

Which results are given for `CSCC(N)C(=O)O` (stereo in doubt) [(S)-methyl-L-cysteine]?
inhibition of D-serine uptake in rat cerebellar synaptosomes (in words) [1]: potent and selective inhibitor; Ki (serotonin (5-HT) uptake): > 1 mM; Ki [2]: > 1 mM; Ki (dopamine (DA) uptake): > 1 mM; Ki (human GlyT-1B): > 100 µM; inhibition of System A transporters ([3H]AIB transport) (System A transporters): 81%

From patent US20050176826A1, “Use of asc-1 inhibitors to treat neurological and psychiatric disorders” (H. Lundbeck A/S, priority 2002, published 2005)
